Data taken from PubChem BioAssay AID1845197 (Molecular Pharmacology Branch, DTP, NCI, 2023).

Test system: 349418-098-R tumor spheroid viability
Assay: Anticancer human tumor 349418-098-R patient-derived lung adenocarcinoma cell line growth inhibition
Conditions: spheroids with HUVEC and MSC; for IC50: curve of first compound; for viability, T/C: stronger effect = lower value; active = viability on the fitted dose curve at most 10% of control; inactive = the rest
Method in brief: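 Complex tumor spheroids combined malignant cells with endothelial cells and mesenchymal stem cells. DNA-damaging drugs and DNA repair inhibitors were tested alone and in combination, at half-log dilutions down from clinical Cmax (top 10 microM if Cmax unknown), 0.25% DMSO final.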

[1] = second compound 1 µM, first compound 0.00949 µM
[2] = second compound 1 µM, first compound 0.03 µM
[3] = second compound 1 µM, first compound 0.0949 µM
[4] = second compound 1 µM, first compound 0.3 µM
[5] = second compound 1 µM, first compound 0.949 µM
[6] = second compound 1 µM, first compound 3 µM
[7] = second compound 3.16 µM, first compound 0.00949 µM
[8] = second compound 3.16 µM, first compound 0.03 µM
[9] = second compound 3.16 µM, first compound 0.0949 µM
[10] = second compound 3.16 µM, first compound 0.3 µM
[11] = second compound 3.16 µM, first compound 0.949 µM
[12] = second compound 3.16 µM, first compound 3 µM
[13] = second compound 10 µM, first compound 0.00949 µM
[14] = second compound 10 µM, first compound 0.03 µM
[15] = second compound 10 µM, first compound 0.0949 µM
[16] = second compound 10 µM, first compound 0.3 µM
[17] = second compound 10 µM, first compound 0.949 µM
[18] = second compound 10 µM, first compound 3 µM
[19] = second compound 31.6 µM, first compound 0.00949 µM
[20] = second compound 31.6 µM, first compound 0.03 µM
[21] = second compound 31.6 µM, first compound 0.0949 µM
[22] = second compound 31.6 µM, first compound 0.3 µM
[23] = second compound 31.6 µM, first compound 0.949 µM
[24] = second compound 31.6 µM, first compound 3 µM
[25] = second compound 100 µM, first compound 0.00949 µM
[26] = second compound 100 µM, first compound 0.03 µM
[27] = second compound 100 µM, first compound 0.0949 µM
[28] = second compound 100 µM, first compound 0.3 µM
[29] = second compound 100 µM, first compound 0.949 µM
[30] = second compound 100 µM, first compound 3 µM
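Also: spheroids exposed to compound for 7 days before measurement.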
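For viability, T/C in this document: percent of vehicle control viability with 100% = DMSO-treated spheroids.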

CNCc1ccc(-c2cc(-c3nc(-c4ccc(S(=O)(=O)C(C)C)cc4)cnc3N)on2)cc1 + Cn1nnc2c(C(N)=O)ncn2c1=O
275 nM: IC50 (second compound 1 µM)
401 nM: IC50 (second compound 10 µM)
inactive: viability, T/C [1] 103% | viability, T/C [2] 100% | viability, T/C [3] 99.6% | viability, T/C [4] 45.4% | viability, T/C [7] 108% | viability, T/C [8] 101% | viability, T/C [9] 102% | viability, T/C [10] 61.2% | viability, T/C [13] 104% | viability, T/C [14] 103% | viability, T/C [15] 97.9% | viability, T/C [16] 64.5% | viability, T/C [19] 104% | viability, T/C [20] 102% | viability, T/C [21] 99.9% | viability, T/C [22] 42.7% | viability, T/C [25] 104% | viability, T/C [26] 106% | viability, T/C [27] 105% | viability, T/C [28] 27.1%
382 nM: IC50 (second compound 3.16 µM)
260 nM: IC50 (second compound 31.6 µM)
214 nM: IC50 (second compound 100 µM)
active: viability, T/C [5] 10.3% | viability, T/C [6] 1.84% | viability, T/C [11] 7.59% | viability, T/C [12] 1.85% | viability, T/C [17] 7.44% | viability, T/C [18] 1.34% | viability, T/C [23] 5.84% | viability, T/C [24] 0.96% | viability, T/C [29] 4.72% | viability, T/C [30] 0.67%

Cc1sc2c(c1C)C(c1ccc(Cl)cc1)=NC(CC(=O)Nc1ccc(O)cc1)c1nnc(C)n1-2 (stereo not given) + Cn1nnc2c(C(N)=O)ncn2c1=O
133 nM: IC50 (second compound 3.16 µM)
active: viability, T/C [5] 1.96% | viability, T/C [6] 0.51% | viability, T/C [11] 1.3% | viability, T/C [12] 0.49% | viability, T/C [16] 10.9% | viability, T/C [17] 1.25% | viability, T/C [18] 0.39% | viability, T/C [23] 1.26% | viability, T/C [24] 0.43% | viability, T/C [28] 9.26% | viability, T/C [29] 0.75% | viability, T/C [30] 0.45%
inactive: viability, T/C [1] 99% | viability, T/C [2] 102% | viability, T/C [3] 67.8% | viability, T/C [4] 16.6% | viability, T/C [7] 99.2% | viability, T/C [8] 105% | viability, T/C [9] 62.7% | viability, T/C [10] 16.5% | viability, T/C [13] 99.2% | viability, T/C [14] 102% | viability, T/C [15] 63.7% | viability, T/C [19] 103% | viability, T/C [20] 103% | viability, T/C [21] 72.1% | viability, T/C [22] 19.3% | viability, T/C [25] 106% | viability, T/C [26] 105% | viability, T/C [27] 64.9%
143 nM: IC50 (second compound 1 µM)
154 nM: IC50 (second compound 31.6 µM)
129 nM: IC50 (second compound 10 µM) | IC50 (second compound 100 µM)

COc1ccc([C@@H](O)c2cc(-c3ncnc4cc(N5CCOCC5)ccc34)c(F)cc2Cl)nn1 + CC[C@@]1(O)C(=O)OCc2c1cc1n(c2=O)Cc2cc3c(CN(C)C)c(O)ccc3nc2-1
< 31.6 nM: IC50 (second compound 0.0949 µM) | IC50 (second compound 0.3 µM)
6180 nM: IC50 (second compound 0.00949 µM)
inactive: viability, T/C (second compound 0.003 µM, first compound 0.0316 µM) 103% | viability, T/C (second compound 0.003 µM, first compound 0.1 µM) 107% | viability, T/C (second compound 0.003 µM, first compound 0.316 µM) 106% | viability, T/C (second compound 0.003 µM, first compound 1 µM) 106% | viability, T/C (second compound 0.003 µM, first compound 3.16 µM) 89.2% | viability, T/C (second compound 0.003 µM, first compound 10 µM) 39% | viability, T/C (second compound 0.00949 µM, first compound 0.0316 µM) 90.1% | viability, T/C (second compound 0.00949 µM, first compound 0.1 µM) 102% | viability, T/C (second compound 0.00949 µM, first compound 0.316 µM) 106% | viability, T/C (second compound 0.00949 µM, first compound 1 µM) 102% | viability, T/C (second compound 0.00949 µM, first compound 3.16 µM) 82.8% | viability, T/C (second compound 0.00949 µM, first compound 10 µM) 26.5% | viability, T/C (second compound 0.03 µM, first compound 0.0316 µM) 69.8% | viability, T/C (second compound 0.03 µM, first compound 0.1 µM) 78.5% | viability, T/C (second compound 0.03 µM, first compound 0.316 µM) 60.4% | viability, T/C (second compound 0.03 µM, first compound 1 µM) 43.9% | viability, T/C (second compound 0.03 µM, first compound 3.16 µM) 26.1% | viability, T/C (second compound 0.03 µM, first compound 10 µM) 18.9% | viability, T/C (second compound 0.0949 µM, first compound 0.0316 µM) 18.4% | viability, T/C (second compound 0.0949 µM, first compound 0.1 µM) 11.6% | viability, T/C (second compound 0.0949 µM, first compound 0.316 µM) 14.2% | viability, T/C (second compound 0.0949 µM, first compound 1 µM) 13.7% | viability, T/C (second compound 0.0949 µM, first compound 3.16 µM) 11.4% | viability, T/C (second compound 0.0949 µM, first compound 10 µM) 9.78%
7870 nM: IC50 (second compound 0.003 µM)
active: viability, T/C (second compound 0.3 µM, first compound 0.0316 µM) 4.47% | viability, T/C (second compound 0.3 µM, first compound 0.1 µM) 3.97% | viability, T/C (second compound 0.3 µM, first compound 0.316 µM) 4.59% | viability, T/C (second compound 0.3 µM, first compound 1 µM) 4.78% | viability, T/C (second compound 0.3 µM, first compound 3.16 µM) 4.77% | viability, T/C (second compound 0.3 µM, first compound 10 µM) 3.94%
679 nM: IC50 (second compound 0.03 µM)
